Results reported in article PMC7926793, “Synthesis and Biological Evaluation of 1-(Diarylmethyl)-1H-1,2,4-triazoles and 1-(Diarylmethyl)-1H-imidazoles as a Novel Class of Anti-Mitotic Agent for Activity in Breast Cancer” (Pharmaceuticals, 2021).
“And” between values parts separate entries of the source, which are not always exact repeats. Equal values may be shown once. Read-outs that look alike come from different tables or passages of the source.

Tests used:
[1] = test system: EKVX; test: NCI 60 cell line screen (Non-Small Cell Lung Cancer); format: cell-based, human; settings: for GI50: Homo sapiens, NCI 5 dose assay; for Growth percentage: single dose 10 µM
[2] = test system: T-47D; test: NCI 60 cell line screen (Breast Cancer); format: cell-based, human; settings: single dose 10 µM
[3] = test system: ACHN; test: NCI 60 cell line screen (Renal Cancer); format: cell-based, human; settings: for GI50: Homo sapiens, NCI 5 dose assay; for Growth percentage: single dose 10 µM
[4] = test system: HCT-15; test: NCI 60 cell line screen (Colon Cancer); format: cell-based, human; settings: for Growth percentage: HCT-15, single dose 10 µM; for GI50: Homo sapiens, HCT-15, NCI 5 dose assay
[5] = test system: MDA-MB-231/ATCC; test: NCI 60 cell line screen (Breast Cancer); format: cell-based, human; settings: for GI50: Homo sapiens, NCI 5 dose assay; for Growth percentage: single dose 10 µM
[6] = target: T1, CYP1A1 (Homo sapiens, UniProt P04798); test: cytochrome P450 assay (DBF fluorescence); settings: for IC50: IC50 CYP1A1; for inhibition at 25 min, 20 µg/mL: human, recombinant CYP1A1, pH 7.4, probe dibenzylfluorescein (DBF), 2.0 μM
T1 sequence (P04798 1-512): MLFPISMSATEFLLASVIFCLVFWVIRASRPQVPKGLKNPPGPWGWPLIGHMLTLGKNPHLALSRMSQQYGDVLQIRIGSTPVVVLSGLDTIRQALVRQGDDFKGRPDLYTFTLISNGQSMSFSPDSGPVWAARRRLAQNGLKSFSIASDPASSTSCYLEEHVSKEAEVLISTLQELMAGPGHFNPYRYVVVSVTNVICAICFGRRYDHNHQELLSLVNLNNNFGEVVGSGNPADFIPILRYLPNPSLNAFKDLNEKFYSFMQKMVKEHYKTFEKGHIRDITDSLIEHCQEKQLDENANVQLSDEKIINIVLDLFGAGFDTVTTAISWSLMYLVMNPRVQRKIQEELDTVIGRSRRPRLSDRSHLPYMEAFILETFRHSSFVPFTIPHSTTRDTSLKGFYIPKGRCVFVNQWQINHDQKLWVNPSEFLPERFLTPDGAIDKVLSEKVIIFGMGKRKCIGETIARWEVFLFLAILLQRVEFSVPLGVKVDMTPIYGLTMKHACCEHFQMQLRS

[7] = test system: OVCAR-4; test: NCI 60 cell line screen (Ovarian Cancer); format: cell-based, human; settings: for GI50: Homo sapiens, OVCAR-4, NCI 5 dose assay; for Growth percentage: OVCAR-4, single dose 10 µM
[8] = test system: SNB-19; test: NCI 60 cell line screen (CNS Cancer); format: cell-based, human; settings: for GI50: Homo sapiens, SNB-19, NCI 5 dose assay; for Growth percentage: SNB-19, single dose 10 µM
[9] = test system: HOP-92; test: NCI 60 cell line screen (Non-Small Cell Lung Cancer); format: cell-based, human; settings: for Growth percentage: HOP-92, single dose 10 µM; for GI50: Homo sapiens, HOP-92, NCI 5 dose assay
[10] = test system: NCI-H460; test: as above; format: cell-based, human; settings: for GI50: Homo sapiens, NCI-H460, NCI 5 dose assay; for Growth percentage: NCI-H460, single dose 10 µM
[11] = test system: OVCAR-5; test: NCI 60 cell line screen (Ovarian Cancer); format: cell-based, human; settings: for GI50: Homo sapiens, OVCAR-5, NCI 5 dose assay; for Growth percentage: OVCAR-5, single dose 10 µM
[12] = toxicity evaluation, alamarBlue assay; format: cell-based, human; settings: human, MCF-10A cells; for viability at 24 h, 1 µM: read-out: cell viability
[13] = test system: SR; test: NCI 60 cell line screen (Leukemia); format: cell-based, human; settings: for Growth percentage: single dose 10 µM
[14] = test system: MCF-7 human breast cancer cells; test: alamarBlue cell viability assay; format: cell-based; settings: 72 h; for IC50: alamarBlue, read-out: Antiproliferative Activity MCF-7 Cells IC50; for viability at 1 µM: MCF7, read-out: cell viability (viable cells)
Description: (§1) The human breast carcinoma cell line MCF-7 was purchased from the European Collection of Animal Cell Cultures (ECACC) and cultured in Eagles minimum essential medium with 10% foetal bovine serum, 2 mM L-glutamine, and 100 μg/mL penicillin/streptomycin. The medium was supplemented with 1% non-essential amino acids. The human breast carcinoma cell line MDA-MB-231 was purchased from the ECACC. MDA-MB-231 cells were maintained in Dulbecco’s modified Eagle’s medium (DMEM) supplemented with 10% (v/v) foetal bovine serum, 2 mM L-glutamine, and 100 μg/mL penicillin/streptomycin (complete medium). HL-60 cells were derived from a patient with acute myeloid leukaemia and were obtained from the ECACC (Salisbury, UK). Cells were cultured in RPMI-1640 Glutamax medium supplemented with 10% FCS media and 100 μg/mL penicillin/streptomycin. MCF-10A cells were obtained as a kind gift from Dr Susan McDonnell, School of Chemical and Bioprocess Engineering, University College Dublin and were cultured in Dulbecco’s Modified Eagle Medium: Nutrient Mixture F-12 (DMEM/F12; Gibco) supplemented with 5% horse serum (Invitrogen), 20 ng mL^−1 epidermal growth factor (Merck Millipore), 0.5 μg mL^−1 hydrocortisone (Sigma,-Aldrich, Arklow, Co. Wicklow, Ireland), 100 ng mL^−1 cholera toxin (Sigma, Aldrich, Arklow, Co. Wicklow, Ireland), 10 μg mL^−1 insulin (Sigma, Aldrich, Arklow, Co. Wicklow, Ireland), and penicillin/streptomycin 5000 U mL^−1 (1%)(Gibco, Biosciences, 3 Charlemont Terrace, Crofton Road, Dun Laoghaire, Co Dublin, A96 K7H7, Ireland). Cells were maintained at 37 °C in 5% CO2 in a humidified incubator. All cells were sub-cultured 3 times/week by trypsinisation using TrypLE Express (1×).
(§2) Cells were seeded at a density of 2.5 × 10^4 cells/well (MCF-7, MDA-MB-231, MCF-10A cells) and 1 × 10^4 cells/well (HL-60) in 96-well plates (200 μL per well). After 24 h, cells were then treated with either medium alone, vehicle control (1% ethanol (v/v)) or with serial dilutions of CA-4 (4a), phenstatin (7a) or selected compounds (0.001–100 μM) in triplicate. Cell proliferation for MCF-7, MDA-MB-231, and MCF-10A cells was analysed using the alamarBlue assay (Invitrogen Corp.) according to the manufacturer’s instructions. After 67–69 h, alamarBlue (10% (v/v)) was added to each well, and plates were incubated for 3–5 h at 37 °C in the dark. Fluorescence was read using a 96-well fluorimeter with excitation at 530 nm and emission at 590 nm. Results were expressed as percentage viability relative to vehicle control (100%).

[15] = test system: MDA-MB-231 human breast cancer cells; test: alamarBlue cell viability assay; format: cell-based; settings: read-out: Antiproliferative Activity MDA-MB-231 Cells IC50
Description: as §1, §2

[16] = test system: HS 578T; test: NCI 60 cell line screen (Breast Cancer); format: cell-based, human; settings: for GI50: Homo sapiens, NCI 5 dose assay; for Growth percentage: single dose 10 µM
[17] = test system: HOP-62; test: NCI 60 cell line screen (Non-Small Cell Lung Cancer); format: cell-based, human; settings: for Growth percentage: HOP-62, single dose 10 µM; for GI50: Homo sapiens, HOP-62, NCI 5 dose assay
[18] = test system: OVCAR-3; test: NCI 60 cell line screen (Ovarian Cancer); format: cell-based, human; settings: for GI50: Homo sapiens, OVCAR-3, NCI 5 dose assay; for Growth percentage: OVCAR-3, single dose 10 µM
[19] = read-out: percentage of viable cells
[20] = 72 h, read-out: percentage of viable cells
[21] = 10 μM, read-out: percentage of viable cells

Row | SMILES | GI50 [1] | Growth percentage [1] | Growth percentage [2] | Growth percentage [3] | Growth percentage [4] | Growth percentage [5] | IC50 [6] | inhibition at 25 min, 20 µg/mL [6] | Growth percentage [7] | Growth percentage [8] | Growth percentage [9] | Growth percentage [10] | Growth percentage [11] | viability at 72 h, 1 µM [12, 20] | Growth percentage [13] | viability at 1 µM ([14]; Homo sapiens) | IC50 ([15]; Homo sapiens, MDA-MB-231, 72 h) | Growth percentage [16] | Growth percentage [17] | Growth percentage [18] | other results
1 | COc1ccc(C(c2cc(OC)c(OC)c(OC)c2)n2ccnc2)cc1O (stereo not shown) [21l, 5-((1H-Imidazol-1-yl)(3,4,5-Trimethoxyphenyl)Methyl)-2-Methoxyphenol] | 702 nM | 30.23% | 42.62% | 42.41% | 7.70% | 34.75% | > 54000 nM | 18.4% | 73.56% | 30.51% | 25.77% | 6.11% | 71.11% | > 80% | 8.48% | 31% | 237 ± 40 nM | 29.10% | 29.46% | -9.52% | GI50 [3]: 693 nM; GI50 [4]: 264 nM; GI50 [5]: 664 nM; GI50 [7]: 3440 nM; GI50 [8]: 532 nM; GI50 [9]: 28600 nM; GI50 [10]: 377 nM; GI50 [11]: 648 nM; viability at 48 h, 0.4 µM [12]: ~100%; viability at 48 h, 0.5 µM [12]: ~100%; viability at 24 h, 1 µM [12]: 73%; viability at 48 h, 1 µM [12, 19]: 64%; viability at 48 h, 10 µM [12, 21]: ~30%; GI50 ([13]; Homo sapiens, NCI 5 dose assay): 182 nM; IC50 [14]: 132 ± 7 nM; IC50 ([14]; Homo sapiens, MCF7, 72 h): 130 nM; GI50 [16]: 414 nM; GI50 [17]: 516 nM; GI50 [18]: 264 nM
2 | COc1ccc(C(c2cc(OC)c(OC)c(OC)c2)N2CCCCC2)cc1 (stereo not shown) [26b, 1-((4-Methoxyphenyl)(3,4,5-Trimethoxyphenyl)Methyl)Piperidine] |  | 59.13% | 33.59% | 50.89% | 20.63% | 53.09% |  |  | 69.25% | 30.43% | 44.15% | 19.38% | 69.57% |  | 18.46% | 78% |  | 16.61% and 16.6% | 29.82% | 8.29% | 
3 | COc1ccc(C(c2cc(OC)c(OC)c(OC)c2)N2CCCC2)cc1 (stereo not shown) [25g] |  | 87.78% | 89.77% | 103.18% | 52.67% | 80.82% |  |  | 101.25% | 90.50% | 85.48% | 84.31% | 92.64% |  | 23.87% | 82% |  | 80.45% | 79.46% | 66.63% | 
4 | COc1ccc(C(c2cc(OC)c(OC)c(OC)c2)n2nccn2)cc1O (stereo not shown) [compound 24] |  |  |  |  |  |  | > 53800 nM | 12.8% |  |  |  |  |  | 71% |  | 27% | 74 ± 30 nM |  |  |  | viability at 72 h, 0.1 µM ([12]; 0.1 μM, 72 h, read-out: percentage of viable cells): 96%; viability at 72 h, 10 µM ([12]; 10 μM, 72 h, read-out: percentage of viable cells): 61%; IC50 ([14]; Homo sapiens, MCF7, 72 h): 52 ± 40 nM
5 | COc1ccc(C(c2cc(OC)c(OC)c(OC)c2)n2cncn2)cc1O (stereo not shown) [19e, 5-((1H-1,2,4-Triazol-1-yl)(3,4,5-Trimethoxyphenyl)methyl)-2-Methoxyphenol] | 2240 nM | 39.79% | 34.98% | 52.36% | 10.04% | 43.15% | > 53800 nM | 18.1% | 72.08% | 33.31% | 43.92% | 9.82% | 72.98% | > 80% |  | 29% | 980 nM | 31.34% | 32.17% | 1.74% | GI50 [3]: 653 nM; GI50 [4]: 438 nM; GI50 [5]: 1500 nM; GI50 [7]: 3020 nM; GI50 [8]: 578 nM; GI50 [9]: 9690 nM; GI50 [10]: 414 nM; GI50 [11]: 1990 nM; viability at 48 h, 0.4 µM [12]: ~100%; viability at 48 h, 0.5 µM [12]: ~100%; viability at 24 h, 1 µM [12]: 99%; viability at 48 h, 1 µM [12, 19]: > 94%; viability at 48 h, 10 µM [12, 21]: ~30%; IC50 ([15]; 72 h): 978 ± 130 nM; GI50 [16]: 548 nM; GI50 [17]: 514 nM; GI50 [18]: 323 nM
6 | COc1ccc(C(c2cc(OC)c(OC)c(OC)c2)N2CCN(Cc3ccccc3)CC2)cc1 (stereo not shown) [27d] |  | 82.69% | 75.11% | 92.77% | 47.63% | 71.05% |  |  | 97.02% | 69.95% | 70.59% | 74.38% | 84.69% |  | 16.10% |  |  | 59.07% | 69.72% | 68.96% | 
